Read-outs that look alike come from different tables or passages of the source. Blank lines part the entries; values can stand above or below the compound they belong to.
Key:
PSA = experiment: Prostate Surface Antigen (PSA) assay, PSA excreted into the media; type: cell-based, human; details: same plates as eGFP assay; for IC50: Homo sapiens, 72 h
Method: The evaluation of PSA excreted into the media was performed in parallel to the eGFP assay using the same plates (see above description). After the cells were incubated for 3 days 150 μl of the media was taken from each well, and added to 150 μl of PBS.

androgen receptor (AR) = target: T1, androgen receptor (AR) (Homo sapiens, UniProt P10275, T878A); experiment: eGFP cellular AR transcription assay; type: cell-based
T1 construct: stably transfected eGFP-expressing LNCaP human prostate cancer cells (LN-ARR2PB-eGFP) containing an androgen responsive probasin-derived promoter; endogenous in cells; host or cells: LNCaP (LN-ARR2PB-eGFP)
T1 sequence (P10275 1-920 T878A): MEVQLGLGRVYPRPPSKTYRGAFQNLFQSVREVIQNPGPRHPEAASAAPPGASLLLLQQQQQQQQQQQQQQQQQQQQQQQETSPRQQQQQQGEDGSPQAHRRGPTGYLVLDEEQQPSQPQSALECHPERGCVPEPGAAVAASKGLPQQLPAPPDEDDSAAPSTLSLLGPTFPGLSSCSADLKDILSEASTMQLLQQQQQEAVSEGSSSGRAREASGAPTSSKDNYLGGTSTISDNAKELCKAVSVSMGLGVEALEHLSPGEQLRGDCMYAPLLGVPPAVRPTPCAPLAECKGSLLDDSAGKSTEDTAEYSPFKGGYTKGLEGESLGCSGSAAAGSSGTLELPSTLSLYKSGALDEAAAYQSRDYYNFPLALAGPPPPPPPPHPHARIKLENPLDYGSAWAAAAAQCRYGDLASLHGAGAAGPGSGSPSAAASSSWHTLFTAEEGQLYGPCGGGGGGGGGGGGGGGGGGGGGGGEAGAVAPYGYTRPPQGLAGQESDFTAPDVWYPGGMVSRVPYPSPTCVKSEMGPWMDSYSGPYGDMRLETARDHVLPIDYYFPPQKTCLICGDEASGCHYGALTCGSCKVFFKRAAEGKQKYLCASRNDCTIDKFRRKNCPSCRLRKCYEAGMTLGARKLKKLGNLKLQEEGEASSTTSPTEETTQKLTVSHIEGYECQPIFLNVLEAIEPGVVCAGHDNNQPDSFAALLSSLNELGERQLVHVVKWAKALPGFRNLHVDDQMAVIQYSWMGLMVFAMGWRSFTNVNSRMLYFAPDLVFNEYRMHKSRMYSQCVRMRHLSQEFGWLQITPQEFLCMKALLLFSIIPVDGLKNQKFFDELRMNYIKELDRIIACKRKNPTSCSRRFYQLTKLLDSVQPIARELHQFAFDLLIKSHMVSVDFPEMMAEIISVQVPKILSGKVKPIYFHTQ
Procedure, shortened: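 AR transcriptional activity is read as eGFP expression from a probasin-derived androgen-responsive promoter. Compound titrated 0-100 μM in the presence of 0.1 nM R1881; 35,000 cells/well.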

[1] = PSA excreted into media, 3 days incubation
[2] = LN-ARR2PBeGFP LNCaP cells, 0.1 nM R1881, 3 days incubation
[3] = media after 3 days, read-out: IC50 (PSA)
[4] = LN-ARR2PB-eGFP LNCaP cells, 0.1 nM R1881, 3 days, 0-100 μM compound, read-out: IC50 (eGFP)
[5] = PSA excreted into media, 3 days incubation, read-out: PSA IC50
[6] = LN-ARR2PBeGFP LNCaP cells, 0.1 nM R1881, 3 days incubation, read-out: eGFP IC50
[7] = LN-ARR2PB-eGFP LNCaP cells, 0.1 nM R1881, 3 days, 0-100 μM compound

IC50 (PSA; [5]): 210 nM
IC50 (androgen receptor (AR); [6]): 270 nM
SMILES: Cc1c(F)ccc2c(-c3ccc4cccc(Cl)c4n3)c[nH]c12 [Compound 13665]

IC50 (PSA; [5]): 1700 nM
IC50 (androgen receptor (AR); [6]): 2500 nM
SMILES: Cc1ccc(Cl)c2c(-c3ccc4ccccc4n3)c[nH]c12 [Compound 13681]

IC50 (PSA; [5]): 2700 nM
IC50 (androgen receptor (AR); [6]): 4800 nM
SMILES: CC1(C)c2ccccc2NC1C1CN(CCO)c2ccccc21 (stereo not shown) [Compound 13508]

IC50 (PSA; [5]): 1900 nM
IC50 (androgen receptor (AR); [6]): 3000 nM
SMILES: CC1(C)c2cc(Br)ccc2NC1c1c[nH]c2ccccc12 (stereo not shown) [Compound 13511]

IC50 (PSA; [5]): 813 nM
IC50 (androgen receptor (AR); [6]): 1440 nM
SMILES: Cc1cc(F)c2[nH]cc(-c3ccc4ccccc4n3)c2c1 [Compound 13612]

IC50 (PSA; [5]): 2520 nM
IC50 (androgen receptor (AR); [6]): 2200 nM
SMILES: COc1ccc2[nH]cc(C3Nc4ccccc4C3(C)C)c2c1 (stereo not shown) [Compound 13536]

IC50 (PSA; [5]): 120 nM
IC50 (androgen receptor (AR); [6]): 110 nM
SMILES: Fc1cc2[nH]cc(-c3ccc4c(F)cccc4n3)c2cc1F [Compound 13693]

IC50 (PSA; [5]): 530 nM
IC50 (androgen receptor (AR); [6]): 760 nM
SMILES: c1ccc2nc(-c3c[nH]c4ccccc34)ncc2c1 [Compound 13587]

IC50 (PSA; [5]): 230 nM
IC50 (androgen receptor (AR); [6]): 200 nM
SMILES: CCc1cccc2c(-c3ccc4ccccc4n3)c[nH]c12 [Compound 13567]

IC50 (PSA; [5]): 52 nM
IC50 (androgen receptor (AR); [6]): 100 nM
SMILES: Cc1cccc2c(-c3nc4ccccc4s3)c[nH]c12 [Compound 13760]

IC50 (PSA; [5]): 62 nM
IC50 (androgen receptor (AR); [6]): 83 nM
SMILES: O=[N+]([O-])c1cccc2c(-c3ccc(Br)cc3)c[nH]c12 [Compound 13738]

Second part, the compound before the results:

SMILES: c1ccc2cc(-c3c[nH]c4ccncc34)ccc2c1 [Compound 13685]
PSA IC50 (PSA; [1]): Inactive
eGFP IC50 (androgen receptor (AR); [2]): Inactive

SMILES: c1ccc(-c2c[nH]c3ncccc23)cc1 [13 739]
IC50 (PSA; [3]): 670 nM
IC50 (androgen receptor (AR); [4]): 660 nM

SMILES: COC(=O)c1cccc2c(-c3ccc(Br)cc3)c[nH]c12 [13 736]
IC50 (PSA; [3]): 680 nM
IC50 (androgen receptor (AR); [4]): 620 nM

SMILES: Cc1cccc2c(-c3ccc4c(Br)ccc(Br)c4n3)c[nH]c12 [Compound 13679]
PSA IC50 (PSA; [1]): Inactive
eGFP IC50 (androgen receptor (AR); [2]): Inactive

SMILES: Brc1cccc2c(-c3ccc4ccccc4n3)c[nH]c12 [13 582]
IC50 (PSA; [3]): 41 nM
IC50 (androgen receptor (AR); [4]): 52 nM

SMILES: Cc1cccc2c(-c3ccc4c(O)cccc4n3)c[nH]c12 [Compound 13620]
PSA IC50 (PSA; [1]): Inactive
eGFP IC50 (androgen receptor (AR); [2]): Inactive

SMILES: Oc1cccc2c(C3Nc4ccccc4C34CCCCC4)c[nH]c12 (stereo not shown) [13 552]
IC50 (PSA; [3]): 1140 nM
IC50 (androgen receptor (AR); [4]): 1100 nM

SMILES: Cc1cc(C)c2[nH]cc(-c3ccc4cc(F)ccc4n3)c2c1 [Compound 13599]
PSA IC50 (PSA; [1]): Inactive
eGFP IC50 (androgen receptor (AR); [2]): Inactive

SMILES: Fc1ccc2c(-c3ccc4c(C(F)(F)F)cccc4n3)c[nH]c2c1F [Compound 13617]
PSA IC50 (PSA; [1]): Inactive
eGFP IC50 (androgen receptor (AR); [2]): Inactive

SMILES: c1ccc2cc(-c3c[nH]c4ncccc34)ccc2c1 [13 676]
IC50 (PSA; [3]): 34 nM
IC50 (androgen receptor (AR); [4]): 53 nM

SMILES: NC(=O)c1ccccc1/N=C/c1c[nH]c2ccccc12 [Compound 13427]
IC50 (PSA; [5]): 310 nM
IC50 (androgen receptor (AR); [6]): 400 nM

SMILES: Brc1ccc2c(-c3ccc4ccccc4n3)c[nH]c2c1 [13 568]
IC50 (PSA; [3]): 1560 nM
IC50 (androgen receptor (AR); [4]): 1300 nM

SMILES: Cc1cccc2c(-c3cnc4cccnc4c3)c[nH]c12 [Compound 13662]
PSA IC50 (PSA; [1]): Inactive
eGFP IC50 (androgen receptor (AR); [2]): Inactive

SMILES: Cc1ccc(CN(C(=O)c2cc3ccccc3[nH]2)C(C)C)o1 [Compound 9128]
IC50 (PSA; [5]): 3500 nM
IC50 (androgen receptor (AR); [6]): 3200 nM

SMILES: Cc1cccc2c(-c3ccc4c(C#N)cccc4n3)c[nH]c12 [Compound 13598]
PSA IC50 (PSA; [1]): Inactive
eGFP IC50 (androgen receptor (AR); [2]): Inactive

SMILES: Cc1cccc2c(-c3ccc4ncsc4c3)c[nH]c12 [13 757]
IC50 (PSA) (PSA; media after 3 days): IC50 (PSA) = Inactive
IC50 (eGFP) (androgen receptor (AR); [7]): IC50 (eGFP) = Inactive

SMILES: Cc1cccc2c(-c3ccc4cnccc4c3)c[nH]c12 [Compound 13765]
PSA IC50 (PSA; [1]): Inactive
IC50 (PSA) (PSA; media after 3 days): IC50 (PSA) = inactive
IC50 (eGFP) (androgen receptor (AR); [7]): IC50 (eGFP) = inactive
eGFP IC50 (androgen receptor (AR); [2]): Inactive
